The text below walks through data of EP4763839A1 (Pamplona Therapeutics (Shenzhen) Co., Ltd., priority 2023, dated 2025).

Experiment [1] has as its system IL-6. Briefly: Inhibition of R848-induced IL-6 release in human PBMCs, IL-6 ELISA. Format: cell-based. To be noted: compound 24 hours, then R848 10 µg/mL 5 hours. As for the experimental part: Example 3: Detection of inhibition of R848-induced IL-6 release
Cryopreserved human PBMCs (Milestone® Biotechnologies, PB010C-W) were thawed and resuspended in RPMI-1640 medium (Gibco, 22400-105) supplemented with 10% fetal bovine serum (Gibco, 10099-141), 100 U/mL penicillin, and 100 µg/mL streptomycin (Gibco, 15140122). Subsequently, 190 µL of the PBMC suspension was added to each well of 96-well clear cell culture plates (Corning, 3599) to achieve a density of 1×10^5 cells/well. The cell plates were incubated at 37°C in a 5% CO2 incubator for 30 minutes. Then, 5 µL of diluted compound solution was added to the corresponding cell-seeded wells to achieve final concentrations ranging from 0.046 to 3,000 nM. The final concentration of DMSO was 0.1%. After the compound-treated cell plate was incubated at 37°C in a 5% CO2 incubator for 24 hours, 5 µL of R848 (MCE, HY-13740) was added to achieve a final concentration of 10 µg/mL. The cell plates were incubated again at 37°C in a 5% CO2 incubator for 5 hours, then centrifuged at 1,000 rpm for 1 minute. 100 µL of the cell supernatant from each well was transferred to a new 96-well clear cell culture plate for IL-6 concentration testing.
Interleukin-6 (IL-6) ELISA assay
The IL-6 concentration in the supernatant of R848-induced human PBMCs was determined using a Human IL-6 (interleukin-6) ELISA KIT (4Bio, CHE0009-048). IL-6 standard solutions at different concentrations, ranging from 3.9 to 250 pg/mL, were prepared according to the manufacturer's instructions. 100 µL of each concentration of the IL-6 standard solution and the pre-diluted test cell supernatant samples were added separately to anti-IL-6 antibody-coated and blocked clear 96-well plates, followed by incubation at 37°C for 1.5 hours. According to the product instructions, the plates were washed, 100 µL of biotinylated antibody was added, and the plates were incubated at 37°C for 1 hour. The plates were washed, 100 µL of enzyme conjugate working solution was added. The plates were incubated at 37°C for 30 minutes, and then washed. 100 µL of chromogenic substrate was added, and the plates were incubated at 37°C for 10-20 minutes. The reaction was terminated by adding 100 µL of stop solution. After the reaction, the OD value at 450 nm was measured in absorbance mode using an Envision microplate reader (PerkinElmer). A standard curve was plotted using the corrected OD values of the various concentrations of IL-6 standard solutions. The IL-6 concentration in each cell supernatant was then determined on the basis of the corresponding concentration for the corrected OD value of the test sample on the standard curve. […] Subsequently, the IC50 value of the compound was calculated by performing non-linear curve fitting of concentration versus inhibition rate using GraphPad Prism 9.
On the technique in general: In an ELISA, binding on a coated surface is turned into a signal by an enzyme label.

Experiment [2] has as its target T1, IRAK4 (Homo sapiens, UniProt Q9NWZ3).
T1 sequence (Q9NWZ3 1-460): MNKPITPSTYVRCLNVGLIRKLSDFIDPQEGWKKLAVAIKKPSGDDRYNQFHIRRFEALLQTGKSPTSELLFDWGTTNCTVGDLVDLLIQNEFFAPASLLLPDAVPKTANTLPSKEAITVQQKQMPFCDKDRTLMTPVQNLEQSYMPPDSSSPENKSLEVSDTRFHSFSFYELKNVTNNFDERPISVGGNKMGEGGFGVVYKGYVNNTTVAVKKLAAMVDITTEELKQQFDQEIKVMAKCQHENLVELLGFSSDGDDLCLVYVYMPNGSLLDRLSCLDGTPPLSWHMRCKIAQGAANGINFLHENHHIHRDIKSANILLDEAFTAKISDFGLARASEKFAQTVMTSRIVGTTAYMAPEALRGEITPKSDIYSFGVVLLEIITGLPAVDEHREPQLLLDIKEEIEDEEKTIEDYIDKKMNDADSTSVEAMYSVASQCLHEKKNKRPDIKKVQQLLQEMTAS
The experiment in a line: Degradation of IRAK4 in THP1 cells, Western blot. To be noted: THP-1 cells, 24 hours of incubation; for DC50: IRAK4 protein by Western blot, read-out: DC50; for Dmax: maximum degradation rate, read-out: Dmax. Format: cell-based. Set-up: Degradation of IRAK4 in THP1 by compound; host or cells: THP-1. The procedure, abridged: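 THP1 cells treated 24 h, lysed; lysates normalised by BCA, 40 μg protein per lane on 10% SDS-PAGE, anti-IRAK4 Western blot with chemiluminescence detection.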
On the technique in general: In western blotting, separated proteins are transferred to a membrane and probed.

The IC50 is the midpoint of a concentration-inhibition curve. High values mean weaker potency in that assay, low ones greater potency in that assay. In general, DC50 refers to the concentration at which degradation of the target reaches its halfway point. By Dmax is commonly meant the largest share of the target that was removed.

Take `NC(=O)c1nn(-c2ccc(N3CCN(CC4CCN(c5ccc6c(c5)C(=O)N(C5CCC(=O)NC5=O)C6=O)CC4)CC3)cc2)cc1NC(=O)c1cccc(C(F)(F)F)n1` (stereo not drawn) [Compound A122]: in experiment [1] (PBMC), the half-inhibitory concentration (IC50) is < 10 nM. In addition, in experiment [2], the DC50 was < 100 nM and the Dmax was > 60%.
For the molecule `Cn1c(=O)n(C2CCC(=O)NC2=O)c2cccc(N3CCC4(CCN(C(=O)c5ccc(-n6cc(NC(=O)c7cccc(C(F)(F)F)n7)c(C(N)=O)n6)cc5)C4)CC3)c21` (stereo not drawn) [Compound A135], in experiment [1] (PBMC), the IC50 was < 10 nM. Moreover, in experiment [2], the DC50 is < 100 nM and the Dmax was > 60%.
Regarding `Cn1c(=O)n(C2CCC(=O)NC2=O)c2cccc(N3CCC4(CC3)CC(NCc3ccc(-n5cc(NC(=O)c6cccc(C(F)(F)F)n6)c(C(N)=O)n5)cc3)C4)c21` (stereo not drawn) [Compound A137], the IC50 in experiment [1] (PBMC) was < 10 nM. Moreover, in experiment [2], the DC50 was < 100 nM and the Dmax was > 60%.
The corresponding values for `Cn1c(=O)n(C2CCC(=O)NC2=O)c2cccc(N3CCC4(CCN(Cc5ccc(-n6cc(NC(=O)c7cccc(C(F)(F)F)n7)c(C(N)=O)n6)cc5)C4)CC3)c21` (stereo not drawn) [Compound A140] are < 10 nM, < 100 nM and > 60%.
With `COc1ccc(C(=O)N2CCN(CCN3CCN(c4ccc(-n5cc(NC(=O)c6cccc(C(F)(F)F)n6)c(C(N)=O)n5)cc4)CC3)CC2)cc1N1CCC(=O)NC1=O` [Compound A143], the IC50 in experiment [1] (PBMC) was < 10 nM. In experiment [2], the DC50 was < 100 nM and the Dmax was > 60%.
Consider `COc1ccc(C(=O)N2CCC(CCN3CCN(c4ccc(-n5cc(NC(=O)c6cccc(C(F)(F)F)n6)c(C(N)=O)n5)cc4)CC3)CC2)cc1N1CCC(=O)NC1=O` [Compound A144], for which the IC50 in experiment [1] (PBMC) was < 10 nM. Also, in experiment [2], the DC50 was < 100 nM and the Dmax was > 60%.
In the case of `COc1ccc(C(=O)N2CCC(CCN3CCN(c4ccc(-n5cc(NC(=O)c6cccc(C(F)(F)F)n6)c(C(N)=O)n5)cc4)CC3)C(F)(F)C2)cc1N1CCC(=O)NC1=O` (stereo not drawn) [Compound A168], the IC50 in experiment [1] (PBMC) was < 10 nM.
Molecule `NC(=O)c1nn(-c2ccc(N3CCN(CC4CCN(c5ccc(C(=O)NC6CCC(=O)NC6=O)cc5)CC4)CC3)cc2)cc1NC(=O)c1cccc(C(F)(F)F)n1` (stereo not drawn) [Compound A171] displayed an IC50 in experiment [1] (PBMC) of 10 to 30 nM.
The same measure, in the same setting: then `NC(=O)c1nn(-c2ccc(N3CCN(CC4CCN(c5ccc(N6CCC(=O)NC6=O)cc5)CC4)CC3)cc2)cc1NC(=O)c1cccc(C(F)(F)F)n1` [Compound A192, N-(3-carbamoyl-1-(4-((1-(4-(2,4-dioxotetrahydropyrimidin-1(2H)-yl)phenyl)piperidin-4-yl)methyl)piperazin-1-ylphenyl)-1H-pyrazol-4-yl)-6-(trifluoromethyl)picolinamide], with 10 to 30 nM; and `NC(=O)c1nn(-c2ccc(N3CCN(CCC4CCN(c5ccc(NC6CCC(=O)NC6=O)cc5F)CC4)CC3)cc2)cc1NC(=O)c1cccc(C(F)(F)F)n1` (stereo not drawn) [Compound A194, N-(3-Carbonyl-1-(4-(4-(2-(4-(((2,6-dioxopiperidin-3-yl)amino)-2-fluorophenyl)piperidin-4-yl)ethyl)piperazin-1-yl)phenyl)-1H-pyrazol-4-yl)-6-(trifluoromethyl)picolinamide], with < 10 nM.
In experiment [1] (PBMC), `NC(=O)c1nn(-c2ccc(CN3CCC4(CC3)CCN(c3ccc5c(c3)C(=O)N(C3CCC(=O)NC3=O)C5=O)CC4)cc2)cc1NC(=O)c1cccc(C(F)(F)F)n1` (stereo not drawn) [Compound A222, N-(3-carbamoyl-1-(4-((9-(2-(2,6-dioxopiperidin-3-yl)-1,3-dioxoisoindolin-5-yl)-3,9-diazaspiro[5.5]undecan-3-yl)methyl)phenyl)-1H-pyrazol-4-yl)-6-(trifluoromethyl)picolinamide] had a concentration for half-maximal inhibition (IC50) of 10 to 30 nM.
With “N-(3-carbamoyl-1-(4-((1-(3-(2,4-dioxotetrahydropyrimidin-1(2H)-yl)-4-methoxybenzoyl)piperidin-4-yl)methyl)piperazin-1-yl)phenyl)-1H-pyrazol-4-yl)-6-(trifluoromethyl)picolinamide [Compound A175]”, the IC50 in experiment [1] is < 10 nM.
